Literature values, collected in patent US7884091B2, “Methods for treating delirium using glucocorticoid receptor-specific antagonists” (Corcept Therapeutics, Inc., priority 2001, dated 2011).

Conditions: in one study; Kawai (1989) supra

For CC#C[C@]1(O)CC[C@H]2[C@@H]3CCC4=CC(=O)CCC4=C3[C@@H](c3ccc(N(C)C)cc3)C[C@@]21C [mifepristone, 17-beta-hydroxy-11-beta-(4-dimethyl-aminophenyl)-17-alpha-(1-propynyl)-estra-4,9-dien-3-one], the “daily dose excreted in the urine” value is listed as “less than 0.5%”.
